# In patent EP1049466B1, “CARBONIC ANHYDRASE INHIBITOR FOR INCREASING OXYGEN TENSION IN THE OPTIC NERVE AND RETINA” (Stefansson, Einar, priority 1998, dated 1999):
# Columns and labels:
# optic nerve = test: Oxygen tension of optic nerve (ONPO2), polarographic electrode in the vitreous humour 0.5 mm over the optic disc of anaesthetised pigs; type: in vivo, Danish agricultural pigs (landrace)
# Method: The pig was secured laterally on an operating table and a speculum was placed between the right eyelids. A conjunctival peritomy was performed and 3-0 silk sutures placed under the rectus muscle tendons to immobilise the eye. A sclerotomy was made 2.5 mm behind the limbus in the superonasal quadrant and a cannula placed, through which the polarographic electrode was advanced into the vitreous cavity. The electrode was held in a micromanipulator (Stoelting Inc. USA) and placed in the vitreous humour approximately 0.5 mm over the optic disc in an area not covered by the large vessels. The entire operation was performed using a Zeiss operating microscope and the electrode was placed using an indirect ophthalmoscope or the microscope and a flat corneal contact lens.
# A silver-silver chloride reference electrode was placed in the conjunctival sac of the same (right) eye and kept moist with saline. The polarographic oxygen meter consists of a 100 micrometer platinum-iridium electrode inside a 20 gauge needle (Model 761), a silver-silver chloride reference electrode and a chemical microsensor (Model 1251, Diamond Electrotech Inc., Ann Arbor Mich., USA). The recording system was calibrated before and after each experiment in a calibration cell (Diamond Electrotech. Inc.) at 37 degrees Celsius in 0.9% saline using 100% N2, 5.0%02-95%N2 and 20.000%02-80%N2 (provided by AGA Inc. Denmark). The barometric pressure was monitored, and the oxygen tension recordings were adjusted for barometric pressure, and expressed as mmHg.
# The experiments were all run with typical indoor illumination (white fluorescent light tubes (Philips TLM 4OW/29RS)). The ambient light intensity at the level of the pig's eye was measured with a Mavolux digital light meter (Gossen GmbH, Germany) and found to be 497 lux or 6 watt per square meter.
# Each experiment was begun with the animal breathing 100% oxygen. Once a stable ONPO2 level was obtained the breathing mixture was changed to air, containing 21% oxygen, and a stable level obtained again. In some experiments the breathing mixture was changed to 20.000% O2 followed by 5.19% CO2, 19.9% O2 (N2 to balance), followed by 20.000% O2.
# Polarographic oxygen electrodes were placed in the vitreous humour 0.5 mm above the optic disc in anaesthetized pigs. Arterial blood pressure and gasses were monitored and ONPO was recorded continously with various breathing gasses.
# [1] = Continuous arterial blood pressure recording in the experimental pigs; type: in vivo, Danish agricultural pigs (landrace); conditions: after intravenous injection of 500 mg (Figure 7)
# Method: Danish agricultural pigs (landrace), 25-33 kg in weight and brought up in specific pathogen free environment, were used. Their treatment was supervised by a veterinarian and followed the decrees of the ARVO Statement for the use of animals in ophthalmic and vision research. All experiments were conducted during daytime. The pigs were anaesthetised with midazolam (dormicum®) and ketamine followed by intravenous application of 250 mg mebumal, fentanylum (Haldid®, Jansen Cilag), 0.5 mg an hour, pancuron bromide (Pavulon®, Organon Technica, Sweden) 16 mg an hour, mebumal (Hospital Pharmacies, Denmark) 50 mg per ml as needed and atropine as needed. The right pupil was dilated with 1% tropicamide eye drops (Mydriacyl® and 2.5% phenylephrine eye drops. A arterial line was placed in a femoral artery for continuous measurement of blood pressure and intermittent blood gas analysis. A venous line was placed in a femoral vein for continuous infusion of the anaesthetics and saline as needed. A rectal thermoprobe provided continuous reading of body temperature.
# Arterial blood samples were obtained at regular intervals and arterial PO2, pH and PCO2 were measured with a ABL 605 blood gas analyser (Radiometer, Denmark) (table 1). Arterial blood pressure, electrocardiogram and rectal temperature were monitored continuously and it was verified that these values were within normal limits. […]
# [2] = intravenous administration; cited from earlier work
# [3] = cited from earlier work
# [4] = intravenous; cited from earlier work
# [5] = oral; blue field entopic technique; cited from earlier work
Compound,"ONPO2 after injection (optic nerve; after 500 mg intravenous injection, anaesthetised pigs, mean ± SD) [mmHg]","ONPO2 before injection (optic nerve; baseline before 500 mg intravenous injection, anaesthetised pigs, mean ± SD) [mmHg]","dose dependence of the effect on ONPO2 (optic nerve; intravenous, dorzolamide effect seen with 6 to 500 mg (Figures 4 and 8))","raised the optic nerve oxygen tension by (optic nerve; summary over the doses given, anaesthetised pigs, n=4 each, p=0.046 (dorzolamide), p=0.005 (acetazolamide))",arterial blood pressure [1],cerebral blood flow [2],flow velocity in the intracranial arteries ([3]; in vivo),flow velocity in the ophthalmic artery ([3]; in vivo),ocular pulsatile blood flow ([3]; mainly originating from the choroidal circulation),retinal blood flow [4],macular blood flow [5],"ONPO2 in response to breathing 5.19% CO2 (optic nerve; breathing 5.19% CO2 and 19.9% O2 (N2 to balance), n=4, p<0.001) [mmHg]","ONPO2 before breathing 5.19% CO2 (optic nerve; breathing 20% O2, n=4) [mmHg]"
CC(=O)Nc1nnc(S(N)(=O)=O)s1 [acetazolamide],30.9± 10.0,23.6± 9.5,dose dependent,15-35%,transient lowering,increased,increased,decrease,decrease,increased,no effect,,
CO2,,,,,,,,,,,,28.9 ± 3.6,20.8 ± 5.6
